Measurements as given in the supplement of paper PMC11061612.

How the values were obtained:
[1] = system: NCI-H1694 (Small Cell Lung Carcinoma); assay: Bliss excess, mean over the matrix (fraction); higher = more synergy
Outline: (§1)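 After 24 hours at 37°C and 5% CO2 in 1536-well plates, cells in DMEM/F12 or RPMI plus 10% FBS received two-drug dose matrices for 72 hours. Viability came from CellTiter-Glo 2.0 luminescence and was scaled as inhibition, anchored at 0 by vehicle wells and at 1 by blank wells. Combination Emax is taken as the second-highest inhibition in the matrix, and Bliss excess as the observed combination effect less EA + EB − EA·EB, with EA and EB the single-agent effects.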

[2] = system: LS-513 (Colorectal Carcinoma); assay: as above
Outline: as §1

NCI-H2369 (Mesothelioma) [3] = assay: as above
Outline: as §1

[4] = system: IHH-4 (Thyroid Gland Carcinoma); assay: as above
Outline: as §1

[5] = system: DMS-273 (Small Cell Lung Carcinoma); assay: as above
Outline: as §1

[6] = system: MDA-MB-157 (Breast Carcinoma); assay: as above
Outline: as §1

[7] = system: NALM-6 (B-Lymphoblastic Leukemia); assay: as above
Outline: as §1

[8] = system: SW1783 (Low Grade Glioma); assay: as above
Outline: as §1

[9] = system: TE-5 (Esophageal Squamous Cell Carcinoma); assay: as above
Outline: as §1

[10] = system: JiyoyeP-2003 (Burkitt's Lymphoma); assay: as above
Outline: as §1

[11] = system: SUIT-2 (Pancreatic Carcinoma); assay: as above
Outline: as §1

[12] = system: U-266 (Plasma Cell Myeloma); assay: combination Emax (second highest fraction inhibited in the dose matrix, 72 h); higher = more inhibition; extreme values may be limits of the assay
Outline: as §1

[13] = system: LS-513 (Colorectal Carcinoma); assay: as above
Outline: as §1

NCI-H2369 (Mesothelioma) [14] = assay: as above
Outline: as §1

[15] = system: SW1088 (Low Grade Glioma); assay: as above
Outline: as §1

[16] = system: NALM-6 (B-Lymphoblastic Leukemia); assay: as above
Outline: as §1

NCI-H2595 (Mesothelioma) = assay: as above
Outline: as §1

[17] = system: OCI-AML2 (Acute Myeloid Leukemia); assay: as above
Outline: as §1

[18] = system: MFH-ino (Other Solid Carcinomas); assay: as above
Outline: as §1

[19] = system: SUIT-2 (Pancreatic Carcinoma); assay: as above
Outline: as §1
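Throughout, for Bliss excess, mean over the matrix: after 72 h of two-drug dosing.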

| Compound | Bliss excess [1] | Bliss excess [2] | Bliss excess (NCI-H2369 (Mesothelioma) [3]) | Bliss excess [4] | Bliss excess [5] | Bliss excess [6] | Bliss excess [7] | Bliss excess [8] | Bliss excess [9] | Bliss excess [10] | Bliss excess [11] | combination Emax [12] | combination Emax [13] | combination Emax (NCI-H2369 (Mesothelioma) [14]) | combination Emax [15] | combination Emax [16] | combination Emax (NCI-H2595 (Mesothelioma)) | combination Emax [17] | combination Emax [18] | combination Emax [19] |
| --- | --- | --- | --- | --- | --- | --- | --- | --- | --- | --- | --- | --- | --- | --- | --- | --- | --- | --- | --- | --- |
| COc1cccc(OCCCN)c1-c1cc(Nc2cnc(C#N)cn2)n[nH]1 [Prexasertib] + Cc1cc2ncnn2cc1Nc1ncc2c(n1)n(C1CCOCC1)c(=O)n2C [AZD7648] (first compound max 1 µM, 7x7, partner max 10 µM) | -0.0259 | -0.0509 | -0.0252 | -0.0109 | -0.0121 | -0.0594 | -0.044 | -0.0281 | 0.0129 | 0.017 | -0.0063 | 0.713 | 0.848 | 0.253 | 0.762 | 0.943 | 0.159 | 1 | 0.464 | 0.739 |
| COc1cccc(OCCCN)c1-c1cc(Nc2cnc(C#N)cn2)n[nH]1 [Prexasertib] + O=C(c1cc(Cc2n[nH]c(=O)c3ccccc23)ccc1F)N1CCN(C(=O)C2CC2)CC1 [Olaparib] (first compound max 1 µM, 7x7, partner max 10 µM) | -0.0596 | -0.0666 | -0.0284 | -0.0827 | -0.0009 | -0.104 | -0.0087 | -0.0344 | 0.0048 | -0.0421 | -0.0219 | 0.749 | 0.781 | 0.283 | 0.792 | 0.96 | 0.23 | 1 | 0.45 | 0.682 |
| COc1cc2c(cc1OCCCCCOc1cc3c(cc1OC)C(=O)N1C=C(C)C[C@H]1C=N3)N=C[C@@H]1CC(C)=CN1C2=O [SG3199] + O=C(c1cc(Cc2n[nH]c(=O)c3ccccc23)ccc1F)N1CCN(C(=O)C2CC2)CC1 [Olaparib] (first compound max 0.001 µM, 7x7, partner max 10 µM) | -0.0222 | -0.0372 | -0.035 | -0.0115 | 0.002 | -0.0185 | -0.0302 | -0.0446 | -0.0665 | -0.0016 | -0.0029 | 0.179 | 0.155 | 0.0848 | 0.151 | 0.459 | 0.0944 | 0.747 | 0.134 | 0.187 |
| CCc1c2c(nc3ccc(O)cc13)-c1cc3c(c(=O)n1C2)COC(=O)[C@]3(O)CC [SN-38] + CN(C)CCCOc1ccc(-c2ccc3ncc4c(c3c2)n(C2CCOCC2)c(=O)n4C)cn1 [AZD0156] (first compound max 0.3 µM, 7x7, partner max 1 µM) | -0.0333 | -0.0878 | -0.0001 | 0.0457 | 0.0377 | 0.0653 | 0.0336 | -0.039 | 0.0124 | 0.0406 | 0.0446 | 0.482 | 0.526 | 0.32 | 0.54 | 1 | 0.176 | 1 | 0.812 | 0.744 |
| C[C@@H](c1ccc2nccn2c1)n1nnc2ncc(-c3cnn(C)c3)nc21 [Savolitinib] + CC1(C)CCC(CN2CCN(c3ccc(C(=O)NS(=O)(=O)c4ccc(NCC5CCOCC5)c([N+](=O)[O-])c4)c(Oc4cnc5[nH]ccc5c4)c3)CC2)=C(c2ccc(Cl)cc2)C1 [Venetoclax] (first compound max 1 µM, 7x7, partner max 1 µM) | -0.0286 | -0.0599 | -0.058 | -0.0399 | -0.0398 | -0.0411 | 0.01 | -0.0442 | -0.0557 | -0.0438 | -0.0737 | 0.259 | 0.0791 | 0.096 | 0.224 | 0.316 | 0.227 | 0.93 | 0.171 | 0.168 |
| C[C@@H](c1ccc2nccn2c1)n1nnc2ncc(-c3cnn(C)c3)nc21 [Savolitinib] + Cc1c2c(nn1C)CSCc1cc(n(C)n1)CSc1cc(c3ccccc3c1)OCCCc1c(C(=O)O)n(C)c3c-2c(Cl)ccc13 [AZD5991] (first compound max 1 µM, 7x7, partner max 1 µM) | 0.0027 | -0.0219 | -0.0527 | -0.0182 | -0.0356 | -0.0501 | -0.0141 | -0.0133 | -0.027 | -0.0034 | -0.0224 | 0.859 | 0.155 | 0.116 | 0.261 | 0.226 | 0.302 | 0.88 | 0.207 | 0.208 |
